Key:
[1] = Sensory evaluation in chicken broth solution with potassium chloride (Experimental Example 3); conditions: chicken broth solution with 0.8 wt % potassium chloride; addition concentration 1 ppm (125 weight ppm with respect to potassium chloride)
Procedure: As shown in the following (1) to (3) below, 0.8 wt % of potassium chloride was added to a food base powder corresponding to 0.5 wt % of sodium chloride to prepare each base solution having an off-taste derived from potassium chloride.
Potassium chloride (0.8 g) was added to a commercially available powdered chicken broth mix (manufactured by Ajinomoto Co., Inc., trade name “Marutorigara Soup”) (1.0 g), hot water (98.2 g) was added to dissolve the mixture to prepare a base solution (chicken broth soup solution).
Each compound shown in the following Tables 15 to 17 was added to each base solution (ramen noodle soup solution, chicken broth solution, potage solution) so as to achieve the concentration (addition concentration) shown in the following Tables 15 to 17 to prepare each evaluation sample.
By a method similar to that in Experimental Example 1, a panel of two experts determined the intensity of off-tastes (bitter taste, metallic taste, harsh taste, astringent taste) derived from potassium chloride in each evaluation sample.

[2] = Sensory evaluation in BCAA sweetness aqueous solution (Experimental Example 6); set-up: key to off-taste suppressing effect: ±: no change from negative control; −: slightly suppressed compared to negative control; −−: suppressed compared to negative control (same level of intensity as BCAA sweetness aqueous solution in which total concentration of leucine, isoleucine, and valine (weight ratio=2:1:1) exceeds 0.8 wt % and is not more than 0.9 wt %); −−−: considerably suppressed compared to negative control (same level of intensity as BCAA sweetness aqueous solution in which total concentration of leucine, isoleucine, and valine (weight ratio=2:1:1) is not more than 0.8 wt %)
Procedure: Each compound shown in the following Table 20 was added to an aqueous solution prepared by dissolving leucine (0.50 parts by weight), isoleucine (0.25 parts by weight), valine (0.25 parts by weight), and granulated sugar (4 parts by weight) in ion exchange water (95 parts by weight) (hereinafter at times referred to as BCAA sweetness aqueous solution) so as to achieve the concentration (addition concentration) shown in the following Table 20 to prepare each evaluation sample.
(§1) Based on the following evaluation criteria, a panel of four experts determined by consensus the intensity of off-tastes (bitter taste, harsh taste) derived from amino acid in each evaluation sample, by comparison with a BCAA sweetness aqueous solution without addition of any compound (negative control).

[3] = Sensory evaluation in pea protein aqueous solution (Experimental Example 8); conditions: text summary of Table 22
Procedure: Each compound shown in the following Table 22 was added to an aqueous solution prepared by dissolving powdered pea protein (6 parts by weight) and granulated sugar (4 parts by weight) in ion exchange water (90 parts by weight) (hereinafter at times referred to as pea protein aqueous solution) so as to achieve the concentration (addition concentration) shown in the following Table 22 to prepare each evaluation sample. Here, the powdered pea protein manufactured by Cosucra was used.
as §1, with “harsh taste, astringent” for “harsh”, “pea protein” for “amino acid”, “pea protein” for “BCAA sweetness”

[4] = Sensory evaluation in 0.06 wt % acesulfame potassium aqueous solution (Experimental Example 10); conditions: summary of Table 24
Procedure: (§2) Each compound shown in the following Table 24 was added to a 0.06 wt % acesulfame potassium aqueous solution (an aqueous solution prepared by dissolving acesulfame potassium (0.06 parts by weight) in water (99.94 parts by weight)) so as to achieve the concentration (addition concentration) shown in the following Table 24 to prepare each evaluation sample.
as §1, with “(bitter” for “(bitter taste, harsh”, “acesulfame potassium” for “amino acid”, “0.06 wt % acesulfame potassium” for “BCAA sweetness”

[5] = Sensory evaluation in 0.007 wt % sucralose aqueous solution (Experimental Example 11); conditions: Table 25
Procedure: as §2, with “25” for “24”, “0.007” for “0.06”, “sucralose” for “acesulfame potassium”, “sucralose (0.007” for “acesulfame potassium (0.06”, “(99.993” for “(99.94”
as §1, with “three” for “four”, “harsh taste, metallic” for “harsh”, “sucralose” for “amino acid”, “0.007 wt % sucralose” for “BCAA sweetness”

[6] = Sensory evaluation in soy protein hamburg steak (Experimental Example 17); conditions: Table 32
Procedure: Of the materials shown in the following Table 31, the materials of category 1 were first mixed, and the materials of category 2 were further mixed. The obtained mixture was formed into a circular shape of about 100 g per piece, and then baked at 180° C. for 2 minutes and 30 seconds for each of the front and back sides on an iron plate to produce a soy protein hamburg steak. Here, the granular soy protein manufactured by FUJI OIL CO., LTD. was used.
Each compound shown in the following Table 32 was added to soy protein hamburg steak so as to achieve the concentration (addition concentration) shown in the following Table 32 to prepare each evaluation sample.
as §1, with “five” for “four”, “harsh taste, astringent” for “harsh”, “soy protein” for “amino acid”, “soy protein hamburg steak” for “a BCAA sweetness aqueous solution”

[7] = Sensory evaluation in sodium acetate aqueous solution (Experimental Example 18); conditions: Table 33
Procedure: Each compound shown in the following Table 33 was added to an aqueous solution prepared by dissolving sodium acetate (1 part by weight) and acetic acid (0.3 parts by weight) in water (98.7 parts by weight) (hereinafter at times referred to as sodium acetate aqueous solution) so as to achieve the concentration (addition concentration) shown in the following Table 33 to prepare each evaluation sample.
as §1, with “harsh taste, astringent” for “harsh”, “sodium acetate” for “amino acid”, “sodium acetate” for “BCAA sweetness”

[8] = Sensory evaluation in 1.5 wt % disodium phosphate aqueous solution (Experimental Example 19); conditions: Table 34
Procedure: Each compound shown in the following Table 34 was added to a 1.5 wt % disodium phosphate aqueous solution (aqueous solution prepared by dissolving disodium phosphate (1.5 parts by weight) in water (98.5 parts by weight)) so as to achieve the concentration (addition concentration) shown in the following Table 34 to prepare each evaluation sample.
as §1, with “harsh taste, astringent” for “harsh”, “disodium phosphate” for “amino acid”, “1.5 wt % disodium phosphate” for “BCAA sweetness”

CCC(=O)O [propionic acid]
off-taste suppressing effect [1]: +++ (intensity of the same level as potassium chloride aqueous solution with potassium chloride concentration of not less than 0.65 wt % and less than 0.7 wt %) | off-taste suppressing effect ([2]; addition concentration 100 weight ppb (10 weight ppm with respect to amino acid)): − | off-taste suppressing effect ([2]; addition concentration 500 weight ppb (50 weight ppm with respect to amino acid)): −− (suppressed compared to negative control (same level of intensity as BCAA sweetness aqueous solution in which total concentration of leucine, isoleucine, and valine (weight ratio=2:1:1) exceeds 0.8 wt % and is not more than 0.9 wt %)) | off-taste suppressing effect ([2]; addition concentration 1000 weight ppb (100 weight ppm with respect to amino acid)): −− (suppressed compared to negative control (same level of intensity as BCAA sweetness aqueous solution in which total concentration of leucine, isoleucine, and valine (weight ratio=2:1:1) exceeds 0.8 wt % and is not more than 0.9 wt %)) | off-taste suppressing effect ([2]; addition concentration 2000 weight ppb (200 weight ppm with respect to amino acid)): −− (suppressed compared to negative control (same level of intensity as BCAA sweetness aqueous solution in which total concentration of leucine, isoleucine, and valine (weight ratio=2:1:1) exceeds 0.8 wt % and is not more than 0.9 wt %)) | intensity of off-tastes (bitter taste, harsh taste) derived from amino acid (branched chain amino acid) ([2]; summary of Table 20): suppressed | intensity of off-tastes (bitter taste, harsh taste, astringent taste) derived from pea protein [3]: suppressed | intensity of off-tastes (bitter taste) derived from acesulfame potassium [4]: suppressed | intensity of off-tastes (bitter taste, harsh taste, metallic taste) derived from sucralose [5]: suppressed | intensity of off-tastes (bitter taste, harsh taste, astringent taste) derived from soy protein [6]: suppressed | intensity of off-tastes (bitter taste, harsh taste, astringent taste) derived from sodium acetate [7]: suppressed | intensity of off-tastes (bitter taste, harsh taste, astringent taste) derived from disodium phosphate [8]: suppressed
